Assay results: article PMC5675120 (Nature chemical biology, 2017)
Where no end group is shown, it is not given here. The star is where a group is joined. FITC = O=C1OC2(c3ccc(O)cc3Oc3cc(O)ccc32)c2ccc(NC(=S)*)cc21

How the values were obtained:
BAX = BAX (Homo sapiens, UniProt Q07812); assay: STD NMR; assay type: binding
[1] = molecular target: T1, BCL-2-associated X protein (BAX), recombinant, full-length, monomeric (human, UniProt Q07812 1-192); assay: fluorescence polarisation
[2] = molecular target: T1, BCL-2-associated X protein (BAX), …; assay: competition STD NMR

Chain of BAX (Q07812 whole entry): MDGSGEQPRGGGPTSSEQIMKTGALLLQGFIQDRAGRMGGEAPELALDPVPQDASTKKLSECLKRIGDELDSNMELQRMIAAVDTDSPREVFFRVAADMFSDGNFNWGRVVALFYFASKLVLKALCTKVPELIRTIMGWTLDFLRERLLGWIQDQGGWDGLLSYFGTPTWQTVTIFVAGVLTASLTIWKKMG
T1 sequence (Q07812 whole entry): as above

Molecule | STD NMR; liposomal release sensitization (BAX) | other results
Oc1cccc(Oc2ccccc2)c1 [compound 2, 3-phenoxyphenol] | all retain BAX-binding activity as assessed by STD NMR, and demonstrate BAX-sensitization activity | –
Nc1ccc(Oc2ccccc2)cc1 [compound 4, 4-phenoxyaniline] | all retain BAX-binding activity as assessed by STD NMR, and demonstrate BAX-sensitization activity | –
Oc1ccc(Cc2ccccc2)cc1 [compound 3, 4-benzylphenol] | all retain BAX-binding activity as assessed by STD NMR, and demonstrate BAX-sensitization activity | –
{FITC}-EALKKALRRHRFLWQRRQRA [FITC-vMIA peptide (aa 131-150)] | – | binding result [1]: binds
EALKKALRRHRFLWQRRQRA [vMIA peptide (aa 131-150), as used in competition STD NMR] | – | binding result [2]: binds
